Reference: patent publication US4775674A, “Imidazoquinolinylether derivatives useful as phosphodiesterase and blood aggregation inhibitors” (Bristol-Myers Company, priority 1986, dated 1988)
In brackets after ≈: the same amount, converted by molar mass. Where two headings read alike, the source gives them in different places.

Tests used:
[1] = system: adenosine diphosphate (ADP)-induced platelet aggregation; experiment: In vitro inhibition of platelet aggregation, ADP-induced (rabbit platelet rich plasma); format: cell-based; settings: Oryctolagus cuniculus, ADP 0.5 mcg/ml, read-out: Platelet Inhibition In Vitro - Rabbit PRP EC50 vs. ADP
Protocol: (§1) The aggregometer method of Born (1), as modified by Mustard, et al. (2) was used to assess the in vitro activity of the various compounds as to inhibition of adenosine diphosphate (ADP) and collagen-induced platelet aggregation. Platelet rich plasma (PRP) was separated by centrifugation from citrated (3.8 percent) rabbit blood. […] The various compounds tested were dissolved in dimethylsulfoxide (DMSO) so that 5 mcl added to the platelet rich plasma would yield the desired test concentration. Vehicle control trials were done and compared with aggregation induced in platelet rich plasma containing various concentrations of the test compounds. Dose response curves were obtained and Effective Concentration (EC50) values calculated.

[2] = system: collagen-induced platelet aggregation; experiment: In vitro inhibition of platelet aggregation, collagen-induced (rabbit platelet rich plasma); format: cell-based; settings: Oryctolagus cuniculus, collagen suspension 0.05 ml, read-out: Platelet Inhibition In Vitro - Rabbit PRP EC50 vs. collagen
Protocol: as §1

[3] = system: platelet aggregation (Ex Vivo vs. ADP); experiment: Inhibition of platelet aggregation following oral administration (Ex vivo); format: in vivo; settings: Rattus norvegicus, rats, oral by gavage, 2 hours after dosing
Protocol: This test is sometimes referred to in the art as an Ex vivo method and was initially described by Fleming, et al., Arch. Int. Pharmacodyn. Ther., 199, 164 (1972). Briefly, the assay is essentially carried out as follows.
Aggregometry is performed in vitro as previously described on platelet rich plasma samples obtained from rats dosed with either test compounds or the vehicle. In all cases, activity is determined 2 hours after the drug is administered orally at various doses by gavage as a suspension in […] plus a few drops of Tween 20.

[4] = target: T1, cAMP phosphodiesterase (human platelets) (Homo sapiens, UniProt Q14432); experiment: Inhibition of cyclic AMP phosphodiesterase; format: biochemical; settings: PDE from human platelets
T1 construct: enzynme obtained from human platelets; from tissue; host or cells: human platelets
T1 sequence (Q14432 whole entry): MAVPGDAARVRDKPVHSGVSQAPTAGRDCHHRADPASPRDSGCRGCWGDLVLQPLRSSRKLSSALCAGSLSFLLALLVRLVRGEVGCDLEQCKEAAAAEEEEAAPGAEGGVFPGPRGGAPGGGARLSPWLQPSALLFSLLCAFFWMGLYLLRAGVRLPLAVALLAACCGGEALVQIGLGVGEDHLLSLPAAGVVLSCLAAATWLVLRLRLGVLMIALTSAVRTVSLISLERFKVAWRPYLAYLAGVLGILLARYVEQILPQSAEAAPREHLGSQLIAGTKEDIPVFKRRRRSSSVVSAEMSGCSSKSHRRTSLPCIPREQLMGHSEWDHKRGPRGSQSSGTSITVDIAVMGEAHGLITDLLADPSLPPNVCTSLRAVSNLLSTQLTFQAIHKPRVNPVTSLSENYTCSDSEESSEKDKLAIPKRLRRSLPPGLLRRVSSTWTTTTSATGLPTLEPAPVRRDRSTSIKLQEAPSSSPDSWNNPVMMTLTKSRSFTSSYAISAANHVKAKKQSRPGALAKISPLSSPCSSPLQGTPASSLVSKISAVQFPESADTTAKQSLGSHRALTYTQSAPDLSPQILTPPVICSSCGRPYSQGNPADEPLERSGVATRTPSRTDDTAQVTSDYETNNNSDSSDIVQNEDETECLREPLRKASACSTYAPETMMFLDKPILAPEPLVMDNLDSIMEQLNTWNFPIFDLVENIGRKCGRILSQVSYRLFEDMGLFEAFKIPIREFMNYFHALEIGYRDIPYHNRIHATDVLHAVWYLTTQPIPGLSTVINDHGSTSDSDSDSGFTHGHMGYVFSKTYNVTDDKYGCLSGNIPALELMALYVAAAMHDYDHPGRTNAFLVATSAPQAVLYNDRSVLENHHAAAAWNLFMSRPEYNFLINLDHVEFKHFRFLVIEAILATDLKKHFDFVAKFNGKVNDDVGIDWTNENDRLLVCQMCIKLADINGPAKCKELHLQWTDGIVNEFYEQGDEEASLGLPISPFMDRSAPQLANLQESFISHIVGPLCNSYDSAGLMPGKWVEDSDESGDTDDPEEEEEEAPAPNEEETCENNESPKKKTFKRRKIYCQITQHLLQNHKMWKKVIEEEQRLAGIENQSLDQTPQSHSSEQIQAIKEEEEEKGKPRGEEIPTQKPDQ
Protocol: This assay is carried out essentially as described by Thompson, et al., Methods in Enzymology, 38, 205-212 (1974). Briefly, tritium labeled cyclic adenosine monophosphate (cAMP) is incubated with a phosphodiesterase (PDE) enzynme obtained from human platelets which converts a portion of the cAMP to 5'AMP in culture tubes. This reaction is terminated by submerging the tubes in a boiling water bath after which they are placed on ice and an aliquot of snake venom is added to each tube. This, during a second incubation, converts the 5'AMP to adenosine. Ion exchange resin is added to bind the remaining cyclic AMP. The tubes are centrifuged to sediment the resin and a portion of the clear supernatent (which contains radioactive adenosine) is counted in a liquid scintillation counter. The cAMP phosphodiesterase inhibition activity of a test agent is determined by pre-incubating the PDE enzyme preparation with the test agent.

[5] = system: ferrets (right ventricular contractile force, blood pressure); experiment: In vivo inotropic activity in ferrets; set-up: species or system ferret; settings: Mustela putorius, 1 h, anesthetized ferret, intraduodenal, 60 minutes
Protocol: This test is carried out in ferrets as follows. Fasted anesthetized ferrets are instrumented to study hemodynamic parameters as well as right ventricular contractile force (RVCF) using a Walton-Brodie open strain guage arch. Drugs are administered intraduodenally as solutions in DMSO (1 mL or less) and effects on myocardial contractile force and other parameters are monitored for 60 minutes after dosing. Changes in contractile force in response to drug treatment are expressed in terms of percent change from predose control.

[6] = vs predose control, read-out: Maximum Percentage Change Right Ventricular Contractile Force (RVCF)
[7] = read-out: Maximum Percentage Change Blood Pressure

`COC(=O)CN(C(=O)CCCOc1ccc2nc3[nH]c(=O)[nH]c3cc2c1)C1CCCCC1` [Example 21, N-Cyclohexyl-N-[4-[(2,3-dihydro-2-oxo-1H-imidazo[4,5-b]quinolin-7-yl)oxy]-1-oxobutyl]glycine Methyl Ester] gave an EC50 [1] of 2.5 ng/mL (≈ 5.68 nM), an EC50 [2] of 0.8 ng/mL (≈ 1.82 nM) and an ED50 [3] of less than 3 mg/kg. It also gave an IC50 [4] of 0.5 nM, a change in vivo at 3 mg/kg [5, 6] of 26% and a change in vivo at 3 mg/kg [5, 7] of -26%.
With `CN(C(=O)CCCOc1ccc2nc3[nH]c(=O)[nH]c3cc2c1)C1CCCCC1` [Example 30, N-Cyclohexyl-N-methyl-4-[(2,3-dihydro-2-oxo-1H-imidazo[4,5-b]quinolin-7-yl)oxy]butanamide] the EC50 [1] was 2 ng/mL (≈ 5.23 nM), the EC50 [2] was 1 ng/mL (≈ 2.61 nM) and the ED50 [3] was 2.4 mg/kg. It also gave an IC50 [4] of 2 nM, a change in vivo at 0.03 mg/kg [5, 6] of 8 ± 2% and a change in vivo at 0.03 mg/kg [5, 7] of -3%. It also gave a change in vivo at 0.3 mg/kg [5, 6] of 41 ± 5%, a change in vivo at 0.3 mg/kg [5, 7] of -27 ± 6% and a change in vivo at 3 mg/kg [5, 6] of 35 ± 2%. It also gave a change in vivo at 3 mg/kg [5, 7] of -30 ± 2%.
Work on `CN(C(=O)CCCOc1ccc2nc3nc(O)n(C)c3cc2c1)C1CCCCC1` [Example 31, N-Cyclohexyl-N-methyl-4-[(2,3-dihydro-1-methyl-2-oxo-1H-imidazo[4,5-b]quinolin-7-yl]oxo]butanamide] yielded an EC50 [1] of 20 ng/mL (≈ 50.4 nM), an EC50 [2] of 18 ng/mL (≈ 45.4 nM) and an ED50 [3] of 2.1 mg/kg. For the same compound, the IC50 [4] was 200 nM, the change in vivo at 0.3 mg/kg [5, 6] was 0% and the change in vivo at 0.3 mg/kg [5, 7] was -28 ± 5%. The change in vivo at 3 mg/kg [5, 6] was 3 ± 6% and the change in vivo at 3 mg/kg [5, 7] was -36 ± 3%.
`CN(C(=O)CCCCOc1ccc2nc3[nH]c(=O)[nH]c3cc2c1)C1CCCCC1` [Example 32, N-Cyclohexyl-N-methyl-5-[(2,3-dihydro-2-oxo-1H-imidazo[4,5-b]quinolin-7-yl)oxo]pentanamide] gave an EC50 [1] of 3 ng/mL (≈ 7.57 nM), an EC50 [2] of 0.8 ng/mL (≈ 2.02 nM) and an ED50 [3] of 3.8 mg/kg. For the same compound, the IC50 [4] was 2 nM, the change in vivo at 0.3 mg/kg [5, 6] was 18 ± 4% and the change in vivo at 0.3 mg/kg [5, 7] was -27 ± 10%.
With `CN(C(=O)CCCCOc1ccc2nc3[nH]c(=O)[nH]c3cc2c1)C1CCCCCC1` [Example 33, N-Cycloheptyl-N-methyl-5-[(2,3-dihydro-2-oxo-1H-imidazo[4,5-b]quinolin-7-yl)oxy]pentanamide] the EC50 [1] was 2 ng/mL (≈ 4.87 nM), the EC50 [2] was 0.6 ng/mL (≈ 1.46 nM) and the ED50 [3] was 1.7 mg/kg. The IC50 [4] was 0.4 nM, the change in vivo at 0.3 mg/kg [5, 6] was 27 ± 8% and the change in vivo at 0.3 mg/kg [5, 7] was -34 ± 2%.
In the case of `COC(=O)CCCOc1ccc2nc3[nH]c(=O)[nH]c3cc2c1` [Example 10, Methyl 4-[(2,3-Dihydro-2-oxo-1H-imidazo[4,5-b]quinolin-7-yl)oxy]butanoate], the EC50 [1] is reported as 20 ng/mL (≈ 66.4 nM), the EC50 [2] is reported as 6 ng/mL (≈ 19.9 nM) and the ED50 [3] is reported as 4.4 mg/kg. The IC50 [4] was 400 nM, the change in vivo at 0.3 mg/kg [5, 6] was 9 ± 10% and the change in vivo at 0.3 mg/kg [5, 7] was -14 ± 9%. It also gave a change in vivo at 3 mg/kg [5, 6] of -9 ± 1% and a change in vivo at 3 mg/kg [5, 7] of -14 ± 8%.
For `O=C(CCCOc1ccc2nc3[nH]c(=O)[nH]c3cc2c1)NC12CC3CC(CC(C3)C1)C2` [Example 16, 4-[(2,3-Dihydro-2-oxo-1H-imidazo[4,5-b]quinolin-7-yl)oxy]-N-(tricyclo[3.3.1^3,7]decan-7-yl)butanamide], the EC50 [1] was 50 ng/mL (≈ 119 nM), the EC50 [2] was 20 ng/mL (≈ 47.6 nM) and the ED50 [3] was 4 mg/kg. It also gave an IC50 [4] of 1 nM, a change in vivo at 3 mg/kg [5, 6] of 6 ± 3% and a change in vivo at 3 mg/kg [5, 7] of -10 ± 4%.
